From patent US20080070883A1, “Use of LXR modulators for the prevention and treatment of skin aging” (Wyeth, priority 2006, published 2008)

Tests used:
[1] = test system: IL-8; assay: TaqMan quantitative PCR, IL-8 gene expression in NHEKs; type: cell-based, human; conditions: UV-exposed (8 J/m^2), 1 μM, FIG. 5
Method: (§1) Add QIAzol® Lysis Reagent (QIAGEN Cat Number 79306) to the cells. Scrape the cells and place into a Falcon Polypropylene tube. Let stand at room temperature for 5 minutes. Add 1 ml of cells to microfuge tubes. Add 200 μl of chloroform, vortex, let stand for 5 minutes. Centrifuge at 4° C. for 15 minutes at 14,000 RPM. Add an equal volume of 70% ETOH (diluted with DEPC water). Add 600 μl to the RNeasy® column from the RNeasy® Mini Kit (QIAGEN Cat. Number 74106) centrifuge at 14,000 RPM at room temperature for 1 minute, discard flow-through. Add remainder of sample to the column, centrifuge, discard flow-through. Add 350 μl of RW1 buffer from the RNeasy® Mini Kit to the column, centrifuge at room temperature for 1 minute, discard flow-through. […] TaqMan technology was used for quantitative PCR for the evaluation of MMP, TNFα, TIMP, IL-8, ASAH1, SPTLC1, SMPD1, LASS2, TXNRD1, GPX3, GSR, CAT, ABCA1, ABCA2, ABCA12, ABCA13, ABCG1, decorin, and LXRα/β gene expression in keratinocytes and fibroblasts. […] Setup TaqMan with QuantiTect Multiplex PCR Kit (QIAGEN cat. Number 204543): 2× master mix: 25 μl; Single Tube Assay: 2.5 μl; Applied Biosystems Primers Probe set (part number 4308329)-18S forward primer: 0.25 μl, 18S reverse primer: 0.25 μl, 18S probe: 0.25 μl; water to 50 μl; 5 μl cDNA. […]

[2] = test system: glutathione reductase (GSR); assay: TaqMan quantitative PCR, GSR gene expression in NHEKs; type: cell-based, human; conditions: 1 μM, FIG. 11
Method: as §1

[3] = test system: ABCA13; assay: TaqMan quantitative PCR, ABCA13 gene expression in NHEKs; type: cell-based, human; conditions: 1 μM, FIG. 6A
Method: as §1

[4] = test system: LXRα; assay: TaqMan quantitative PCR, LXRα gene expression in NHEKs; type: cell-based, human; conditions: 1 μM, FIG. 1A
[5] = test system: ABCA1; assay: TaqMan quantitative PCR, ABCA1 gene expression in NHEKs; type: cell-based, human; conditions: 1 μM, FIG. 6A
Method: as §1

[6] = test system: TIMP1; assay: TaqMan quantitative PCR, TIMP1 gene expression in BJ human fibroblasts; type: cell-based; conditions: 1 μM, FIG. 9
Method: (§2) Add QIAzol® Lysis Reagent (QIAGEN Cat Number 79306) to the cells. Scrape the cells and place into a Falcon Polypropylene tube. Let stand at room temperature for 5 minutes. Add 1 ml of cells to microfuge tubes. Add 200 μl of chloroform, vortex, let stand for 5 minutes. Centrifuge at 4° C. for 15 minutes at 14,000 RPM. Add an equal volume of 70% ETOH (diluted with DEPC water). Add 600 μl to the RNeasy® column from the RNeasy® Mini Kit (QIAGEN Cat. Number 74106) centrifuge at 14,000 RPM at room temperature for 1 minute, discard flow-through. Add remainder of sample to the column, centrifuge, discard flow-through. Add 350 μl of RW1 buffer from the RNeasy® Mini Kit to the column, centrifuge at room temperature for 1 minute, discard flow-through. […]
(§3) TaqMan technology was used for quantitative PCR for the evaluation of MMP, TNFα, TIMP, IL-8, ASAH1, SPTLC1, SMPD1, LASS2, TXNRD1, GPX3, GSR, CAT, ABCA1, ABCA2, ABCA12, ABCA13, ABCG1, decorin, and LXRα/β gene expression in keratinocytes and fibroblasts. […]
(§4) Setup TaqMan with QuantiTect Multiplex PCR Kit (QIAGEN cat. Number 204543): 2× master mix: 25 μl; Single Tube Assay: 2.5 μl; Applied Biosystems Primers Probe set (part number 4308329)—18S forward primer: 0.25 μl, 18S reverse primer: 0.25 μl, 18S probe: 0.25 μl; water to 50 μl; 5 μl cDNA. […]

[7] = test system: ABCG1; assay: TaqMan quantitative PCR, ABCG1 gene expression in NHEKs; type: cell-based, human; conditions: 1 μM, FIG. 6A
Method: as §1

[8] = test system: sphingomyelin phosphodiesterase (SMPD1); assay: TaqMan quantitative PCR, SMPD1 gene expression in NHEKs; type: cell-based, human; conditions: 1 μM, FIG. 10A
Method: as §1

[9] = test system: TNFα; assay: TaqMan quantitative PCR, TNFα gene expression in NHEKs; type: cell-based, human; conditions: 1 μM, FIG. 2
Method: as §1

[10] = test system: TIMP1; assay: TaqMan quantitative PCR, TIMP1 gene expression in NHEKs; type: cell-based, human; conditions: 1 μM, FIG. 4
Method: as §1

[11] = test system: ceramide synthase (LASS2); assay: TaqMan quantitative PCR, LASS2 gene expression in NHEKs; type: cell-based, human; conditions: 1 μM, FIG. 10A
Method: as §1

[12] = test system: ABCA2; assay: TaqMan quantitative PCR, ABCA2 gene expression in NHEKs; type: cell-based, human; conditions: 1 μM, FIG. 6A
Method: as §1

[13] = test system: acid ceramidase (ASAH1); assay: TaqMan quantitative PCR, ASAH1 gene expression in NHEKs; type: cell-based, human; conditions: 1 μM, FIG. 10A
Method: as §1

[14] = test system: decorin; assay: TaqMan quantitative PCR, decorin gene expression in NHEKs; type: cell-based, human; conditions: UV-exposed (8 J/m^2), 1 μM, FIG. 7
Method: as §1

[15] = test system: ABCA12; assay: TaqMan quantitative PCR, ABCA12 gene expression in NHEKs; type: cell-based, human; conditions: 1 μM
Method: as §1

[16] = test system: LXRβ; assay: TaqMan quantitative PCR, LXRβ gene expression in NHEKs; type: cell-based, human; conditions: UV-exposed (8 J/m^2), 1 μM, FIG. 1B
[17] = test system: MMP1; assay: TaqMan quantitative PCR, MMP1 gene expression in BJ human fibroblasts; type: cell-based; conditions: 5 ng/ml rhTNFα, 1 μM, FIG. 8A
Method: as §2, §3, §4

[18] = test system: serine palmitoyl transferase (SPTLC1); assay: TaqMan quantitative PCR, SPTLC1 gene expression in NHEKs; type: cell-based, human; conditions: 1 μM, FIG. 10A
Method: as §1

[19] = test system: thioredoxin reductase (TXNRD1); assay: TaqMan quantitative PCR, TXNRD1 gene expression in NHEKs; type: cell-based, human; conditions: 1 μM, FIG. 11
Method: as §1

[20] = test system: glutathione peroxidase (GPX3); assay: TaqMan quantitative PCR, GPX3 gene expression in NHEKs; type: cell-based, human; conditions: 1 μM, FIG. 11
Method: as §1

[21] = test system: catalase (CAT); assay: TaqMan quantitative PCR, CAT gene expression in NHEKs; type: cell-based, human; conditions: 1 μM, FIG. 11
Method: as §1

[22] = test system: MMP3; assay: TaqMan quantitative PCR, MMP3 gene expression in BJ human fibroblasts; type: cell-based; conditions: 5 ng/ml rhTNFα, 1 μM, FIG. 8B
Method: as §2, §3, §4

[23] = test system: MMP3; assay: TaqMan quantitative PCR, MMP3 gene expression in NHEKs; type: cell-based, human; conditions: UV-exposed (8 J/m^2), 1 μM, FIG. 3
Method: as §1

SMILES: O=S(=O)(c1ccccc1)N(CC(F)(F)F)c1ccc(C(O)(C(F)(F)F)C(F)(F)F)cc1 [T1317, N-(2,2,2-trifluoroethyl)-N-{4-[2,2,2-trifluoro-1-hydroxy-1-(trifluoromethyl)ethyl]phenyl}benzene sulfonamide]
- UV-induced expression of IL-8 [1]: reduced
- GSR expression [2]: induction
- ABCA13 expression [3]: induction
- expression of LXRα ([4]; UV-exposed (8 J/m^2)): induced
- expression of LXRα ([4]; UV-unexposed): induced
- ABCA1 expression [5]: induction
- TIMP1 expression ([6]; TNFα-exposed (5 ng/ml rhTNFα)): induced
- TIMP1 expression ([6]; TNFα-unexposed): induced
- ABCG1 expression [7]: induction
- SMPD1 expression [8]: induction
- UV-induced expression of TNFα ([9]; UV-exposed (8 J/m^2)): reduced
- basal expression of TNFα ([9]; UV-unexposed): reduced
- TIMP1 expression ([10]; UV-exposed (8 J/m^2)): induced
- TIMP1 expression ([10]; UV-unexposed): induced
- LASS2 expression [11]: induction
- ABCA2 expression [12]: induction
- ASAH1 expression [13]: induction
- UVB-mediated inhibition of decorin expression [14]: reversed
- ABCA12 expression ([15]; FIG. 6A): induction
- UV-induced inhibition of ABCA12 expression ([15]; UV-exposed (8 J/m^2), FIG. 6B): reversed
- UV-mediated inhibition of LXRβ expression [16]: reversed
- TNFα-induced MMP1 expression [17]: inhibition
- SPTLC1 expression [18]: induction
- TXNRD1 expression [19]: induction
- GPX3 expression [20]: induction
- CAT expression [21]: induction
- TNFα-induced MMP-3 expression [22]: inhibition
- UV-induced MMP-3 expression [23]: inhibition
